Converted amounts (≈) assume the structure as drawn.

Experimental findings from US20260224542A1, “PHARMACEUTICAL COMPOSITION CONTAINING ß-LACTAMASE INHIBITOR AND USE THEREOF” (priority 2023, published 2026) are described below.

The test system of data set [1] is Acinetobacter baumannii AR0274. The experiment in a line: Neutropenic mouse thigh infection, imipenem + Compound 1 dose ratios (Example 3). In kind it is in vivo. Particulars: Compound 1 total 96 mg/kg IV; 9 h after inoculation. On the procedure:
(§1) The overnight cultures are washed twice with phosphate buffer solution (PBS) and adjusted to the optimal concentration in PBS.
(§2) For intravenous (IV) administration, the solution of Compound 1 is prepared using a Captisol vehicle, which is 25 mM acetate buffer (prepared with sodium acetate trihydrate) containing 10% w/v Captisol. The pH is adjusted to 5.0 with 2N acetic acid solution. A desired volume of buffer is added to the weighed sample, the desired concentration of Compound 1 is prepared in the buffer, which is then ultrasonically heated in a water bath until a clear solution was obtained. The administrated volume of Compound 1 is 5 mL/kg.
(§3) For subcutaneous (SC) administration, an imipenem solution or imipenem-cilastatin solution is prepared in sterile PBS by using imipenem monohydrate or imipenem monohydrate and cilastatin sodium. The desired concentration of imipenem is prepared by adding PBS to the solid powder, then sonicating the mixture in a water bath until a clear solution is obtained, and the administrated volume is 10 mL/kg.
(§4) The mice were divided into 16 groups, with 5 mice in each group. […]
(§5) For the […] Group 1 (control group) above, animals were euthanized with an overdose of sodium pentobarbital 1 hour after inoculation. As described above, bilateral thighs were dissected and quantitatively cultured for use as final samples.

Data set [2] deals with Pseudomonas aeruginosa ACC00680. The experiment in a line: Neutropenic mouse thigh infection, imipenem + Compound 1 dose ratios (Example 1). In kind it is in vivo. Conditions: 9 h after inoculation. On the procedure: as §1, §2, §3
The mice were divided into 15 groups, with 5 mice in each group. The test was carried out following the above steps, the concentration of the bacterial solution of Pseudomonas aeruginosa ACC00680 was 1.83×10^5 colony forming unit (CFU) per gram of thigh tissues, and the administration was conducted according to the scheme in the table below.
For Groups 2 to 15 above, animals were euthanized 9 hours after inoculation using an overdose of sodium pentobarbital, followed by confirmation of death by cervical dislocation.
as §5

In data set [3] the test system is Klebsiella pneumoniae AR0113. The experiment in a line: Neutropenic mouse thigh infection, imipenem + Compound 1 dose ratios (Example 4). In kind it is in vivo. Particulars: Compound 1 total 96 mg/kg; 9 h after inoculation. On the procedure:
as §1, §2, §3, §4, §5

Data set [4] in a line: Solubility of Compound 1 incubated for 24 h at 25° C. (Example 6). In kind it is physicochemical. How it is done:
The solubilization effect of sodium sulfobutylether-β-cyclodextrin (SBECD) and hydroxypropyl-β-cyclodextrin (HP-β-CD) on Compound 1 was investigated by taking the solubility in 50 mM pH 4.5 acetate buffer medium and water as a reference.
In the art, surfactants may also be used for solubilization. To further improve the solubility of Compound 1, a surfactant was added on the basis of SBECD to investigate the solubility.

For data set [5], the system named is Pseudomonas aeruginosa ACC00680. The experiment in a line: Neutropenic mouse thigh infection, imipenem + cilastatin + Compound 1 dose ratios (Example 2). In kind it is in vivo. Particulars: Compound 1 total 96 mg/kg IV; 9 h after inoculation. On the procedure: as §1, §2, §3, §4, §5

Regarding `N=C1NC[C@@H](c2nnc([C@@H]3CC4(CC4)[C@@H]4CN3C(=O)N4OS(=O)(=O)O)o2)N1` [Compound 1], the “Group geometric mean (CFU/g)” value is recorded as 1.89 × 10^7 CFU/g in data set [1]; 4.63 × 10^5 CFU/g in data set [2] (Compound 1 total 50 mg/kg IV); 1.93 × 10^6 CFU/g in data set [2] (Compound 1 total 75 mg/kg IV); 4.52 × 10^6 CFU/g in data set [2] (Compound 1 total 100 mg/kg IV); 2.06 × 10^7 CFU/g in data set [3]; 3.21 × 10^7 CFU/g in data set [5]. Moreover, the “effect of surfactant added on the basis of SBECD on solubility” value in data set [4] (SBECD 10% plus surfactant) is reported as “failed to significantly improve the solubility”. The concentration in solution in data set [4] (water, background statement, conditions not stated) (solubility) was 600 µg/mL (≈ 1500 µM).
